SMILES strings stand for the structures. Like-named read-outs stand apart in the source and are kept apart here.

The values below come from patent US8324378B2, “Prodrugs and conjugates of prenylation inhibitors” (Purdue Research Foundation, priority 2007, dated 2012).

Test [1] deals with T1, FTase (Homo sapiens, UniProt P49354+P49356). The experiment in a line: in vitro inhibition of FTase by farnesylated monophosphates. The format is biochemical.
Test [2] addresses T1, FTase. Conditions: background, have been shown; cited from earlier work.
[3] abbreviates: read-out: IC50 for inhibition of FTase.

Take `CC(C)=CCCC(C)=CCCC(=CCOP(=O)(O)O)C(C)(C)C` [3-t-butylfarnesyl monophosphate]: the IC50 on FTase [1] (setting [3]) was about 16 nM.
As for `C=CCC(=CCOP(=O)(O)OP(=O)(O)O)CCC=C(C)CCC=C(C)C` [pyrophosphate of 3-allylfarnesol], at FTase [2], the “inhibition of FTase, described in words” value is “nanomolar inhibitors”.
For the molecule `CC(C)=CCCC(C)=CCCC(=CCOP(=O)(O)OP(=O)(O)O)C(C)(C)C` [pyrophosphate of 3-t-butylfarnesol], at FTase [2], the “inhibition of FTase, described in words” value is recorded as “nanomolar inhibitors”.
`C=CCC(=CCOP(=O)(O)O)CCC=C(C)CCC=C(C)C` [3-Allylfarnesyl monophosphate, 3-allylfarnesyl monophosphate]: the IC50 on FTase [1] (setting [3]) is about 11 nM.
For the molecule `CC(C)=CCCC(C)=CCCC(=CCOP(=O)(O)OP(=O)(O)O)CC=C(C)C` [pyrophosphate of 3-(3,3-dimethylallyl)farnesol], on FTase [2], the “inhibition of FTase, described in words” value is “protein-selective inhibitor”.
`CC(C)=CCCC(C)=CCCC(=CCOP(=O)(O)O)CC=C(C)C` [3-(3,3-dimethylallyl)farnesyl monophosphate]: on FTase [1] (highest dose tested 10 uM, read-out: IC50 for inhibition of FTase (not showing 50% inhibition at the highest dose tested)), the IC50 is over 10000 nM.

Broadly, the IC50 is the midpoint of a concentration-inhibition curve.
